The source of these data is patent publication US10040822B2, “Neuroprotective composition and method of use” (Brown University, priority 2012, dated 2018).

The subject of series [1] is neurons in the spinal cord and in the brain. The series is described as follows: Intrathecal and intraventricular injection of fluorescent-tagged peptides, distribution in spinal cord and brain. The note with it: fluorescent-tagged peptide. The class given is in vivo. From the text:
Testing addressed intrathecal and intraventricular injection of fluorescent-tagged R(7) (SEQ ID NO: 5) and C-s-s-C-R(7) (“C-R(7)” disclosed as SEQ ID NO: 8). […] This approach is a workable option for quick delivery to prevent both stroke or traumatic injury to these tissues.

Series [2] has as its system NMDA-insult to the retina. The series is described as follows: In vivo rat retinal toxicity model of NMDA-induced chemical stroke. The conditions noted are these: for long-term protection against NMDA-induced retinal ganglion cell death: 14-21 day post-insult, single dosing; for long-term protection against NMDA-induced retinal ganglion cell death / short-term protection against NMDA-insult / NMDA-induced loss of plasma membrane selectivity in NMDA-receptive neurons / NMDA-induced caspase activation / NMDA-induced mitochondrial-induced oxidative stress in the retina / NMDA-induced poly-(ADP)ribosylolation: rat retina; for short-term neuronal cell death signaling: compound administered simultaneously with NMDA-induced chemical stroke; for NMDA-induced loss of plasma membrane selectivity in NMDA-receptive neurons: out to 8 hrs post-insult, compound given simultaneously with NMDA; for NMDA-induced caspase activation / NMDA-induced mitochondrial-induced oxidative stress in the retina / NMDA-induced poly-(ADP)ribosylolation: short-term, 2-4 hrs post-NMDA-insult. An excerpt: 7. Blockade of PARP activity attenuates poly(ADP-ribosyl)ation but offers only partial neuroprotection against NMDA-induced cell death in the rat retina. (Goebel and Winkler, J Neuro Chem, 98:1732-1745, 2006) (NMDA-induced chemical stroke in vivo rat retinal neurotoxicity model).
In a test model, the retina was protected from NMDA-induced chemical stroke. […] The compositions of this invention are useful in a variety of clinical situations, most of which are characterized by neurological insult or cellular insult typified by mitochondrial damage. Without being bound by any particular theory, untreated mitochondrial damage is believed to lead to generation of free radical species. The compositions of this invention appear to avert or curtail oxidative stress in the retina following NMDA-insult by reducing mitochondrial originated free radical generation. Without being bound by any particular theory, such activity is believed to be significant in neuroprotection arising from the compositions of this invention.
Data establish that the compounds of the present invention protect the neural tissue (retina) against a strong NMDA-insult, with particular reference to R(7) (SEQ ID NO: 5), CR(7) (SEQ ID NO: 8) and C-s-s-CR(7) (“CR(7)” disclosed as SEQ ID NO: 8).

In a further series the test system is HEK293 cells. The series is described as follows: Cultured HEK293 cells pretreated with peptide, chemically induced excitotoxic challenge, mitochondrial readouts. The class given is cell-based. The note with it: for oxidative stress following excitotoxic challenge / stress-induced hyperpolarization of the mitochondrial membrane potentials: HEK293 cells pretreated with peptide, compared with sham-treated controls; for mitochondrial oxidative stress: further studies by the applicant's group, system not given.

Another series concerns stroke. Description: Stroke patient treated i.v. with polyarginine (Examples 1, 2). The class given is in vivo, human. On the procedure: A person enters the emergency room and is diagnosed with an ischemic event involving the middle cerebral artery, with symptomatology onset being under 1 hr. Immediately, the patient was administered an i.v. supplemented with poly-arginine (R(7)C-s-s-C (“R(7)C” disclosed as SEQ ID NO: 12), 5 mg/kg) while blood supply to the restricted area is restored.
A person is revived following stoke in their home by EMS and is rushed to the nearest hospital 80 miles away. Upon arriving at the hospital it is determined that the patient is showing signs of weakness on their left side. […] They are immediately started an i.v. and administered poly arginine (R(7) (SEQ ID NO: 5))@ 4 mg/kg/hr over a period of 5 days to arrest post-stroke neuronal damage. The patient is monitored for recovery signs.

The subject of a further series is glaucoma. The series is described as follows: Glaucoma patient treated with CR(7) eye drops (Example 9). In kind it is in vivo, human. The conditions noted are these: Example 9, glaucoma patient, eye drops 1.25 μg per 20 μl drop, two drops morning and night, chronic. As for the experimental part:
A person presents with a complaint of blurry vision in their left eye for 1 week. Their IOP is above 21 mmHg. A diagnosis of glaucoma is made.
Effort is made to surgically reduce IOP. In post-surgical monitoring, IOP levels remain above normal excepted levels. To prevent retinal damage resulting from the prolonged exposure to elevated IOP. the patient is administered CR(7) (SEQ ID NO: 8) in the form of eye drops suspended in a corneal penetrating lipophilic suspension. Each 20 μl drop contains 1.25 μg of CR(7) (SEQ ID NO: 8) The total applied/treatment is 2.5 μg. Two drops are administered morning and two drops at night

The next series relates to retinal neurons. The series is described as follows: Uptake of fluorescent-tagged peptides into retinal neurons after injection into the vitreal chamber. The class given is in vivo. The note with it: intravitreal, rat. On the procedure:
Attention is drawn to the uptake into brain tissues under in vivo conditions Fluorescent-tagged R(7) (SEQ ID NO: 5) and C-s-s-CR(7) (“CR(7)” disclosed as SEQ ID NO: 8) were injected into the vitreal chamber of a rat eyes and analyzed for specific uptake into retinal neurons at multiple time points post-injection. […] At longer time points (2-4 hrs post injection) the accumulation of the labeled peptides accumulated within the cytoplasm of the majority of neurons in the inner half of the retina with preferential accumulations being localized to small membrane-bound organelles surrounding the nucleus of both ganglion cells and amacrine cells as well as in exiting ganglion cell axons.

The subject of another series is Traumatic Brain Injury. The series is described as follows: TBI patient treated i.v. with polyarginine (Example 3). In kind it is in vivo, human. The conditions noted are these: Example 3, severe concussion patient, i.v. 0.05 mg/kg, 3-5 days. As for the experimental part: A high school football player is rushed to the emergency room of a local hospital suffering from a severe concussion following a helmet to helmet impact with an opposing player. The patient is initially unconscious on the field for over 20 min. EMS personnel arrived to find the patient responding to stimuli, but completely disoriented and unable to coordinate muscle movement, articulate speech or focus eye movements. Upon arriving at the ER, the patient is administered an i.v. containing R(7)C-s-s-C (“R(7)C” disclosed as SEQ ID NO: 12) peptide at 0.05 mg/kg. Delivery of the peptide continued until brain swelling resulting from the impact returns to normal state (3-5 days). Without being bound by any particular theory, the therapeutic is to arrest neuronal cell death resulting from these documented post-traumatic effects.

For the next series, the system named is spinal cord injury. Description: Spinal cord injury patient treated i.v. with polyarginine (Example 8). In kind it is in vivo, human. The conditions noted are these: Example 8, spinal cord injury patient, i.v. 0.15 mg/kg every other day for 30 days. On the procedure:
A person presents with a spinal cord injury following an automobile accident. The subject is conscious but unable to move their legs. […] A Th(11)-L(2) laminectomy is performed along with retrieval of foreign bodies and dura repair. Upon admission the patient is administered an i.v. containing R(7)C-s-s-C (“R(7)C” disclosed as SEQ ID NO: 12) peptide at 0.15 mg/kg.

[3] abbreviates: Example 2, post-stroke patient, i.v. 4 mg/kg/hr over 5 days, observed over the next 30 days.

Where no end group is shown, it is not given here.

On to “fluorescent-tagged CR(7): fluorescent-tagged CR(7) (SEQ ID NO: 8) (CRRRRRRR; also: fluorescent tag, position not given here)”, for which, in series [1], the “accumulation in neurons of spinal cord and brain” value is “Preferential accumulation was noted in the neurons located within the hippocampus and cerebral cortex”; the “crossing of the pia matter glial barrier” value was “readily crosses the pia matter glial barrier”.

With “R(7)-C: 7 arginine peptide with C-terminus cysteine (SEQ ID NO: 12) (RRRRRRRC; MOD_RES (1)..(7) Residues may be D or L configuration)”, in series [2], the “long-term protection against NMDA-induced retinal ganglion cell death” value (“long-term protection” below) is “both short and long-term protection”; the “short-term protection against NMDA-insult” value (“short-term protection” below) was “both short and long-term protection”.

Consider RRRRRRR [R(7)], for which, in series [2], the “long-term protection” value is “less effective”, the “short-term neuronal cell death signaling” value was “block”, the “NMDA-induced loss of plasma membrane selectivity in NMDA-receptive neurons” value is “blocked” and the “short-term protection” value is “full short-term protection”. Besides, in series [2], the NMDA-induced caspase activation result is given as “fully block”, the “NMDA-induced mitochondrial-induced oxidative stress in the retina” value is reported as “fully block” and the “NMDA-induced poly-(ADP)ribosylolation” value was “fully block”. In the series on HEK293 cells, the “oxidative stress following excitotoxic challenge” value is reported as “significant attenuation”, the “stress-induced hyperpolarization of the mitochondrial membrane potentials” value (“stress-induced hyperpolarization” below) is “significant attenuation” and the mitochondrial oxidative stress result is reported as “significantly prevented”. For the same molecule, in the series on stroke (setting [3]), the “muscle tone and limb recovery” value is given as “increased muscle tone on the left side”; the speech pattern recovery result is listed as “Improvement in their speech pattern”.

Turning to `N=C(N)NCCCC(NC(=O)[C@H](CCCNC(=N)N)NC(=O)C(N)CSSC[C@H](N)C(=O)O)C(=O)N[C@@H](CCCNC(=N)N)C(=O)NC(CCCNC(=N)N)C(=O)N[C@@H](CCCNC(=N)N)C(=O)NC(CCCNC(=N)N)C(=O)N[C@@H](CCCNC(=N)N)C(N)=O` (stereo partly shown) [C-s-s-CR(7), C-s-s-C-R-R-R-R-R-R-R], in series [2], the “long-term protection” value is reported as “not significantly different from results obtained from untreated or sham-treated control retinas”, the “short-term neuronal cell death signaling” value is recorded as “block”, the “NMDA-induced loss of plasma membrane selectivity in NMDA-receptive neurons” value is “blocked” and the NMDA-induced caspase activation result is on record as “fully block”. Also, in series [2], the “NMDA-induced mitochondrial-induced oxidative stress in the retina” value is listed as “fully block” and the “NMDA-induced poly-(ADP)ribosylolation” value is recorded as “fully block”. Also, in the series on HEK293 cells, the “oxidative stress following excitotoxic challenge” value was “significant attenuation”, the “stress-induced hyperpolarization” value was “significant attenuation” and the mitochondrial oxidative stress entry is reported as “significantly prevented”.

Consider “d-C-s-s-dCdR(7): d-isomer of C-s-s-CR(7) (CRRRRRRR; D-amino acids, disulfide-linked; MOD_RES (1)..(7) Residues are D configuration)”, for which, in series [2], the “long-term protection” value is “full short- and long-term neuroprotection”; the “short-term protection” value is “full short- and long-term neuroprotection”.

For the molecule C-R-R-R-R-R-R-R (CRRRRRRR) [CR(7)], in series [2], the “long-term protection” value is reported as “not significantly different from results obtained from untreated or sham-treated control retinas”, the “short-term neuronal cell death signaling” value is listed as “block”, the “NMDA-induced loss of plasma membrane selectivity in NMDA-receptive neurons” value is “blocked” and the NMDA-induced caspase activation result is recorded as “fully block”. Moreover, in series [2], the “NMDA-induced mitochondrial-induced oxidative stress in the retina” value was “fully block” and the “NMDA-induced poly-(ADP)ribosylolation” value is “fully block”. Besides, the neuroprotection result in series [2] (general statement, retina, NMDA-insult) is reported as “effective when the peptide is made with either l- or d-amino acids”. Moreover, the “progression of neuronal cell death” value with glaucoma was “no progression of neuronal cell death is detected”. In addition, in the series with HEK293 cells, the “oxidative stress following excitotoxic challenge” value is recorded as “significant attenuation”, the “stress-induced hyperpolarization” value was “significant attenuation” and the mitochondrial oxidative stress entry is recorded as “significantly prevented”.

Consider “Fluorescent-tagged R(7): Fluorescent-tagged R(7) (SEQ ID NO: 5) (RRRRRRR; also: fluorescent tag, position not given here)”, for which, in the series on retinal neurons (fluorescent-tagged peptide, 30 min following injection), the “accumulation in retinal neurons and glia cells of ganglion and inner nuclear layers” value was “significant accumulations”. For the same molecule, the “subcellular localisation of labeled peptide (double labeling)” value in the series on retinal neurons (2-4 hrs post injection) is “majority of these labeled puncta colocalize with mitochondrial-specific markers”.

Consider “R(7)C-s-s-C: R(7)C (SEQ ID NO: 12) with second cysteine linked by disulfide to the terminal cysteine (RRRRRRRC(Cys); also: extra cysteine disulfide-linked to Cys8)”, for which the “TBI and post-concussion symptoms” value in the series on Traumatic Brain Injury was “remains symptom free of TBI and post-concussion effects”. Moreover, in the series on spinal cord injury, the “recovery of leg movement” value is “substantial ability to move their legs is returned”. Further, in the series on stroke (Example 1, ischemic stroke patient, i.v. 5 mg/kg), the “CT/MRI imaging of the affected region” value is recorded as “no signs of lesioning in the affected region”. In addition, the “daily testing of cognitive and motor systems” value in the series with stroke (Example 1, ischemic stroke patient, i.v. 5 mg/kg, onset under 1 hr) is “no deficits in physical or mental capacities”.

For “d-CdR(7): d-isomer of CR(7) (SEQ ID NO: 13) (CRRRRRRR; D-amino acids; MOD_RES (1)..(7) Residues are D configuration)”, in series [2], the “long-term protection” value was “full short- and long-term neuroprotection”; the “short-term protection” value was “full short- and long-term neuroprotection”.
